US20120178666A1 (SHIRE LLC, priority 2009, published 2012)
Structures can show the parent of a compound that is named as a salt. Where two headings read alike, the source gives them in different places. Blank lines part the entries; values can stand above or below the molecule they belong to.

Key:
[1] = Prodrug stability in simulated gastric fluid (USP); conditions: 37° C.
Procedure: (§1) The remaining concentrations of the prodrugs were then assayed by HPLC.

[2] = Comparative bioavailability study of guanfacine in monkeys (full pharmacokinetics); format: in vivo, cynomolgus monkey; conditions: oral gavage, monkey
Procedure: The characteristics of the test animals are set out in Table 13.
The following pharmacokinetic parameters derived from the plasma analytical data were determined using Win Nonlin;

[3] = Prodrug stability in simulated intestinal fluid (USP); conditions: 37° C.
Procedure: as §1

[4] = system: gut motility; assay: Charcoal propulsion test (gut motility); format: in vivo, rat
Procedure: The effect of a drug on gut motility can be studied by means of the charcoal propulsion test.
The method used was based on that described by Takemori et al. (J. Pharmacol. Exp. Ther. 169:39, 1969). Test treatments were administered orally 60 minutes prior to an oral dose of a 10% suspension of charcoal in 2.5% gum Arabic (2 ml/kg). Twenty minutes after dosing with charcoal, the rats were sacrificed and the entire gastrointestinal tract was removed quickly and carefully. The distance that the charcoal meal had travelled toward the caecum was measured and expressed as a percentage of the total gut length.

[5] = Comparative bioavailability study in monkeys in the fasted or fed state; format: in vivo, cynomolgus monkey
Procedure: Five male cynomolgus monkeys were used. Food was withdrawn from animals in fasted groups from the evening of the day prior to dosing until approximately 4 hours after dosing.
The formulations were prepared on the day of dosing and administered orally as soon as practicable up to a maximum of 2 hours after formulation.
Blood samples (0.5 mL) were collected from all animals pre-dose and at 0.5, 1, 2, 3, 4, 6, 8 10, 12, 16 and 24 hours after dosing.
Following processing, the resultant plasma was frozen and analysed by a qualified method. Pharmacokinetic evaluation was performed using a validated pharmacokinetic software package.

[6] = Comparative pharmacokinetic screening study of guanfacine prodrugs in the monkey; conditions: oral gavage
[7] = Pharmacokinetics in rats in hepatic portal and tail veins following oral administration; format: in vivo; conditions: rat, equimolar dose
Procedure: Rats were surgically prepared under isofluorane anaesthesia by attaching a silicon catheter to the portal vein then exteriorising it at the nape of the neck with a blood collection port attached.
At each sampling time serial point blood samples (approximately 0.2 mL) were taken simultaneously from the lateral tail vein cannula and the hepatic portal cannula. After collection of the final blood sample each animal was killed by cervical dislocation. Blood samples were collected at 15, 30 minutes and 1, 2, 4, 8 and 24 hours post dose.
Pharmacokinetic parameters in portal and systemic plasma were derived by non-compartmental analysis (linear/logarithmic trapezoidal) using WinNonlin (Version 4.1) software.

[8] = immediate release guanfacine (TENEX); cited from earlier work
[9] = Rattus norvegicus, po, read-out: % inhibition of GIT transit compard to vehicle
[10] = Rattus norvegicus, po, Study 1, oral dose 0.1 mg/kg guanfacine free base equivalents, read-out: % inhibition of GIT transit compard to vehicle
[11] = Rattus norvegicus, po, Study 1, oral dose 0.3 mg/kg guanfacine free base equivalents, read-out: % inhibition of GIT transit compard to vehicle
[12] = Rattus norvegicus, po, Study 1, oral dose 1 mg/kg guanfacine free base equivalents, read-out: % inhibition of GIT transit compard to vehicle
[13] = Rattus norvegicus, po, Study 1, oral dose 3 mg/kg guanfacine free base equivalents, read-out: % inhibition of GIT transit compard to vehicle
[14] = Rattus norvegicus, po, Study 1, oral dose 5 mg/kg guanfacine free base equivalents, read-out: % inhibition of GIT transit compard to vehicle

SMILES: CC(C)[C@H](NC(=O)CCCC(=O)NC(=N)NC(=O)Cc1c(Cl)cccc1Cl)C(=O)O [Compound 1, guanfacine-[glutaryl-(S)-valine] amide trifluoroacetate]
% prodrug remaining following incubation for: 1 h in simulated gastric fluid pH 1.1 [1]: 80%
plasma guanfacine profile (in words) [2]: sustained guanfacine concentrations
% prodrug remaining following incubation for: 2 h in simulated intestinal fluid pH 6.8 [3]: 92%
inhibition at 0.1 mg/kg [4, 9]: 9%
inhibition at 0.3 mg/kg [4, 9]: 6%
inhibition at 1 mg/kg [4, 9]: 45%
inhibition at 3 mg/kg [4, 9]: 50%
inhibition at 5 mg/kg [4, 9]: 53%

SMILES: CC(C)[C@H](N)C(=O)NCCC(=O)NC(=N)NC(=O)Cc1c(Cl)cccc1Cl [Compound 2, guanfacine-β-alanine-(S)-valine amide di-trifluoroacetate]
mean Cmax (ng/mL) prodrug ([5]; Fasted, 0.5 mg/kg guanfacine equivalent, oral): BLQ
% prodrug remaining following incubation for: 1 h in simulated gastric fluid pH 1.1 [1]: 75%
% prodrug remaining following incubation for: 2 h in simulated intestinal fluid pH 6.8 [3]: 89%
prodrug levels in plasma (in words) [6]: detectable prodrug levels in plasma
inhibition at 0.1 mg/kg [4, 10]: -3%
inhibition at 0.3 mg/kg [4, 11]: 30%
inhibition at 1 mg/kg [4, 12]: 42%
inhibition at 3 mg/kg [4, 13]: 42%
inhibition at 5 mg/kg [4, 14]: 42%

SMILES: CC(C)[C@@H](N)C(=O)N[C@@H](CCC(=O)NC(=N)NC(=O)Cc1c(Cl)cccc1Cl)C(=O)O [Compound 5, guanfacine-γ-(S)-glutamic acid-(R)-valine amide di-trifluoroacetate]
% prodrug remaining following incubation for: 1 h in simulated gastric fluid pH 1.1 [1]: 86%
plasma guanfacine profile (in words) [2]: sustained guanfacine concentrations
% prodrug remaining following incubation for: 2 h in simulated intestinal fluid pH 6.8 [3]: 89%
inhibition at 0.1 mg/kg [4, 10]: 6%
inhibition at 0.3 mg/kg [4, 11]: 22%
inhibition at 1 mg/kg [4, 12]: 48%
inhibition at 1.7 mg/kg ([4]; Rattus norvegicus, po, Study 1, oral dose 1.7 mg/kg guanfacine free base equivalents, read-out: % inhibition of GIT transit compard to vehicle): 50%
inhibition at 3 mg/kg [4, 13]: 44%
inhibition at 5 mg/kg [4, 14]: 42%

SMILES: CN(CC(=O)O)C(=O)NC(=N)NC(=O)Cc1c(Cl)cccc1Cl [Compound 9, Guanfacine Sarcosine Urea]
prodrug levels in plasma (in words) [6]: high prodrug levels

SMILES: CC(C)[C@@H](N)C(=O)NCCC(=O)NC(=N)NC(=O)Cc1c(Cl)cccc1Cl [Compound 11, Guanfacine β-Alanine-(R)-Valine Amide]
% prodrug remaining following incubation for: 1 h in simulated gastric fluid pH 1.1 [1]: 79%
prodrug levels in plasma (in words) [6]: detectable prodrug levels in plasma

SMILES: CNCC(=O)N[C@@H](COC(=O)NC(=N)NC(=O)Cc1c(Cl)cccc1Cl)C(=O)O [Compound 61, (S)-serine(guanfacine)-sarcosine carbamate di-trifluoroacetate]
% prodrug remaining following incubation for: 1 h in simulated gastric fluid pH 1.1 [1]: 92%
% prodrug remaining following incubation for: 2 h in simulated intestinal fluid pH 6.8 [3]: 96%
prodrug levels in plasma (in words) [6]: detectable prodrug levels in plasma
inhibition at 0.1 mg/kg [4, 9]: 8%
inhibition at 0.3 mg/kg [4, 9]: 25%
inhibition at 1 mg/kg [4, 9]: 31%
comparative systemic exposure to guanfacine (in words) [7]: similar

SMILES: CNCC(=O)N[C@H](C(=O)O)[C@@H](C)OC(=O)NC(=N)NC(=O)Cc1c(Cl)cccc1Cl [Compound 63, sarcosine-(2S,3R)-threonine(guanfacine) carbamate di-trifluoroacetate]
% prodrug remaining following incubation for: 1 h in simulated gastric fluid pH 1.1 [1]: 86%
% prodrug remaining following incubation for: 2 h in simulated intestinal fluid pH 6.8 [3]: 99%
prodrug levels in plasma (in words) [6]: detectable prodrug levels in plasma
inhibition at 0.1 mg/kg [4, 9]: 0%
inhibition at 0.3 mg/kg [4, 9]: 13%
inhibition at 1 mg/kg [4, 9]: 49%
comparative systemic exposure to guanfacine (in words) [7]: similar

More lines, main results first:

% prodrug remaining following incubation for: 1 h in simulated gastric fluid pH 1.1 [1]: 93%
% prodrug remaining following incubation for: 2 h in simulated intestinal fluid pH 6.8 [3]: 78%
prodrug levels in plasma (in words) [6]: total absence of prodrug in the plasma
SMILES: CC(C)[C@H](N)C(=O)N[C@@H](COC(=O)NC(=N)NC(=O)Cc1c(Cl)cccc1Cl)C(=O)O [Compound 17, (S)-Valine-(S)-Serine(Guanfacine) Carbamate]

% prodrug remaining following incubation for: 1 h in simulated gastric fluid pH 1.1 [1]: 58%
% prodrug remaining following incubation for: 2 h in simulated intestinal fluid pH 6.8 [3]: 110%
prodrug levels in plasma (in words) [6]: high prodrug levels
SMILES: O=C(O)CC[C@@H]1N=C(NC(=O)Cc2c(Cl)cccc2Cl)NC1=O [Compound 37, Guanfacine-(S)-Glutamic Cyclic adduct]

% prodrug remaining following incubation for: 1 h in simulated gastric fluid pH 1.1 [1]: 70%
% prodrug remaining following incubation for: 2 h in simulated intestinal fluid pH 6.8 [3]: 83%
prodrug levels in plasma (in words) [6]: detectable prodrug levels in plasma
SMILES: C[C@@H](N)C(=O)N[C@@H](CCC(=O)NC(=N)NC(=O)Cc1c(Cl)cccc1Cl)C(=O)O [Compound 41, (R)-Alanine-(S)-γ-Glutamate(Guanfacine) Amide]

food effect (in words) ([5]; fasted vs fed): apparent absence of a food effect
SMILES: N=C(N)NC(=O)Cc1c(Cl)cccc1Cl [Guanfacine, guanfacine, reference compound]
time at which peak plasma drug levels are reached after dosing [8]: ≥ 1 h
inhibition at 0.1 mg/kg [4, 10]: 52%
inhibition at 0.3 mg/kg [4, 11]: 55%
inhibition at 1 mg/kg [4, 12]: 47%
inhibition at 0.03 mg/kg ([4]; Rattus norvegicus, po, Study 2, oral dose 0.03 mg/kg guanfacine free base equivalents, read-out: % inhibition of GIT transit compard to vehicle): 13%
inhibition at 0.1 mg/kg ([4]; Rattus norvegicus, po, Study 2, oral dose 0.1 mg/kg guanfacine free base equivalents, read-out: % inhibition of GIT transit compard to vehicle): 41%
inhibition at 0.3 mg/kg ([4]; Rattus norvegicus, po, Study 2, oral dose 0.3 mg/kg guanfacine free base equivalents, read-out: % inhibition of GIT transit compard to vehicle): 56%
reduction in the distance travelled by the charcoal plug within 20 minutes compared to control group ([4]; oral, 0.1 mg base/kg): 41-52%
